The NIST ThermoML archive (doi:10.1016/j.jct.2017.05.001)

Experiment: wn = mass fraction of the nth substance listed
Conditions: Liquid; for mass density: Vibrating tube method

OCCN(CCO)CCO [triethanolamine] + O
viscosity [mPa·s]
Conditions | w1 = 0.0992 | w1 = 0.1 | w1 = 0.2 | w1 = 0.2991 | w1 = 0.3 | w1 = 0.4
293.15 K, 100 kPa, Concentric cylinders viscometry | – | 1.41 | 2.066 | – | 3.197 | 5.34
293.15 K, 100 kPa, Falling or rolling sphere viscometry | 1.429 | – | 2.037 | 3.208 | – | 5.317
293.15 K, 5000 kPa, Falling or rolling sphere viscometry | 1.459 | – | 2.036 | 3.212 | – | 5.311
293.15 K, 10000 kPa, Falling or rolling sphere viscometry | 1.455 | – | 2.035 | 3.229 | – | 5.331
293.15 K, 15000 kPa, Falling or rolling sphere viscometry | 1.454 | – | 2.04 | 3.18 | – | 5.376
293.15 K, 20000 kPa, Falling or rolling sphere viscometry | 1.45 | – | 2.042 | 3.234 | – | 5.417
293.15 K, 25000 kPa, Falling or rolling sphere viscometry | 1.447 | – | 2.044 | 3.242 | – | 5.445
293.15 K, 30000 kPa, Falling or rolling sphere viscometry | 1.446 | – | 2.046 | 3.245 | – | 5.5
293.15 K, 40000 kPa, Falling or rolling sphere viscometry | 1.443 | – | 2.051 | 3.288 | – | 5.549
293.15 K, 60000 kPa, Falling or rolling sphere viscometry | 1.44 | – | 2.064 | 3.325 | – | 5.675
293.15 K, 80000 kPa, Falling or rolling sphere viscometry | 1.447 | – | 2.08 | 3.373 | – | 5.792
293.15 K, 100000 kPa, Falling or rolling sphere viscometry | 1.448 | – | 2.098 | 3.446 | – | 5.987
313.15 K, 100 kPa, Concentric cylinders viscometry | – | 0.881 | 1.244 | – | 1.786 | 2.756
313.15 K, 100 kPa, Falling or rolling sphere viscometry | 0.909 | – | 1.203 | 1.786 | – | 2.788
313.15 K, 5000 kPa, Falling or rolling sphere viscometry | 0.8937 | – | 1.208 | 1.797 | – | 2.794
313.15 K, 10000 kPa, Falling or rolling sphere viscometry | 0.8956 | – | 1.21 | 1.808 | – | 2.797
313.15 K, 15000 kPa, Falling or rolling sphere viscometry | 0.8964 | – | 1.214 | 1.818 | – | 2.828
313.15 K, 20000 kPa, Falling or rolling sphere viscometry | 0.8965 | – | 1.22 | 1.832 | – | 2.852
313.15 K, 25000 kPa, Falling or rolling sphere viscometry | 0.8977 | – | 1.225 | 1.835 | – | 2.866
313.15 K, 30000 kPa, Falling or rolling sphere viscometry | 0.8992 | – | 1.228 | 1.846 | – | 2.889
313.15 K, 40000 kPa, Falling or rolling sphere viscometry | 0.9027 | – | 1.231 | 1.861 | – | 2.928
313.15 K, 60000 kPa, Falling or rolling sphere viscometry | 0.91 | – | 1.251 | 1.893 | – | 3.028
313.15 K, 80000 kPa, Falling or rolling sphere viscometry | 0.9177 | – | 1.276 | 1.933 | – | 3.115
313.15 K, 100000 kPa, Falling or rolling sphere viscometry | 0.9261 | – | 1.282 | 1.98 | – | 3.193
333.15 K, 100 kPa, Concentric cylinders viscometry | – | 0.621 | 0.821 | – | 1.173 | 1.669
333.15 K, 100 kPa, Falling or rolling sphere viscometry | 0.6124 | – | 0.8083 | 1.147 | – | 1.67
333.15 K, 5000 kPa, Falling or rolling sphere viscometry | 0.6114 | – | 0.8084 | 1.154 | – | 1.68
333.15 K, 10000 kPa, Falling or rolling sphere viscometry | 0.6149 | – | 0.8125 | 1.164 | – | 1.698
333.15 K, 15000 kPa, Falling or rolling sphere viscometry | 0.6154 | – | 0.8177 | 1.168 | – | 1.704
333.15 K, 20000 kPa, Falling or rolling sphere viscometry | 0.6178 | – | 0.82 | 1.178 | – | 1.72
333.15 K, 25000 kPa, Falling or rolling sphere viscometry | 0.6198 | – | 0.8238 | 1.181 | – | 1.738
333.15 K, 30000 kPa, Falling or rolling sphere viscometry | 0.6221 | – | 0.8283 | 1.189 | – | 1.748
333.15 K, 40000 kPa, Falling or rolling sphere viscometry | 0.625 | – | 0.8329 | 1.203 | – | 1.771
333.15 K, 60000 kPa, Falling or rolling sphere viscometry | 0.6327 | – | 0.8473 | 1.225 | – | 1.826
333.15 K, 80000 kPa, Falling or rolling sphere viscometry | 0.6418 | – | 0.8631 | 1.253 | – | 1.878
333.15 K, 100000 kPa, Falling or rolling sphere viscometry | 0.6513 | – | 0.8789 | 1.293 | – | 1.964

mass density [kg/m3]
Conditions | w1 = 0.0992 | w1 = 0.2 | w1 = 0.2991 | w1 = 0.4
293.15 K, 100 kPa | 1013.3 | 1029.5 | 1046.1 | 1065.2
293.15 K, 500 kPa | 1013.5 | 1029.5 | 1046.2 | 1065.3
293.15 K, 1000 kPa | 1013.7 | 1029.7 | 1046.4 | 1065.4
293.15 K, 2000 kPa | 1014.2 | 1030.2 | 1046.8 | 1065.8
293.15 K, 5000 kPa | 1015.5 | 1031.4 | 1047.9 | 1066.9
293.15 K, 10000 kPa | 1017.6 | 1033.4 | 1049.8 | 1068.7
293.15 K, 15000 kPa | 1019.6 | 1035.4 | 1051.7 | 1070.5
293.15 K, 20000 kPa | 1021.8 | 1037.4 | 1053.7 | 1072.3
293.15 K, 30000 kPa | 1026 | 1041.4 | 1057.4 | 1075.8
293.15 K, 40000 kPa | 1030 | 1045.2 | 1061.1 | 1079.3
293.15 K, 50000 kPa | 1034 | 1049 | 1064.7 | 1082.7
293.15 K, 60000 kPa | 1037.9 | 1052.7 | 1068.3 | 1086.1
293.15 K, 70000 kPa | 1041.8 | 1056.4 | 1071.8 | 1089.4
293.15 K, 80000 kPa | 1045.5 | 1059.8 | 1075.1 | 1092.5
293.15 K, 90000 kPa | 1049.1 | 1063.4 | 1078.5 | 1095.8
293.15 K, 100000 kPa | 1052.9 | 1066.9 | 1081.8 | 1098.9
293.15 K, 110000 kPa | 1056.3 | 1070.2 | 1084.9 | 1101.8
293.15 K, 120000 kPa | 1059.8 | 1073.6 | 1088.2 | 1104.9
293.15 K, 130000 kPa | 1063.3 | 1077 | 1091.5 | 1107.9
293.15 K, 140000 kPa | 1066.5 | 1080.1 | 1094.5 | 1110.8
313.15 K, 100 kPa | 1006.9 | 1021.9 | 1037.4 | 1055.1
313.15 K, 500 kPa | 1007 | 1022.1 | 1037.5 | 1055.3
313.15 K, 1000 kPa | 1007.2 | 1022.3 | 1037.7 | 1055.4
313.15 K, 2000 kPa | 1007.6 | 1022.7 | 1038.1 | 1055.8
313.15 K, 5000 kPa | 1008.9 | 1023.9 | 1039.3 | 1056.9
313.15 K, 10000 kPa | 1010.9 | 1025.9 | 1041.2 | 1058.8
313.15 K, 15000 kPa | 1013 | 1027.8 | 1043.1 | 1060.6
313.15 K, 20000 kPa | 1015 | 1029.7 | 1045 | 1062.4
313.15 K, 30000 kPa | 1019.1 | 1033.7 | 1048.8 | 1066
313.15 K, 40000 kPa | 1023 | 1037.6 | 1052.6 | 1069.7
313.15 K, 50000 kPa | 1026.8 | 1041.2 | 1056.1 | 1073.2
313.15 K, 60000 kPa | 1030.7 | 1044.9 | 1059.7 | 1076.6
313.15 K, 70000 kPa | 1034.4 | 1048.5 | 1063.2 | 1079.9
313.15 K, 80000 kPa | 1038 | 1051.9 | 1066.6 | 1083.1
313.15 K, 90000 kPa | 1041.6 | 1055.3 | 1069.9 | 1086.3
313.15 K, 100000 kPa | 1045.2 | 1058.8 | 1073.3 | 1089.5
313.15 K, 110000 kPa | 1048.6 | 1062.1 | 1076.4 | 1092.7
313.15 K, 120000 kPa | 1052 | 1065.6 | 1079.6 | 1095.7
313.15 K, 130000 kPa | 1055.3 | 1068.7 | 1082.8 | 1098.7
313.15 K, 140000 kPa | 1058.5 | 1071.9 | 1085.9 | 1101.7
333.15 K, 100 kPa | 997.2 | 1011.6 | 1026.3 | 1043.1
333.15 K, 500 kPa | 997.5 | 1011.8 | 1026.5 | 1043.3
333.15 K, 1000 kPa | 997.7 | 1012 | 1026.7 | 1043.5
333.15 K, 2000 kPa | 998.1 | 1012.4 | 1027.2 | 1043.9
333.15 K, 5000 kPa | 999.3 | 1013.6 | 1028.3 | 1045.1
333.15 K, 10000 kPa | 1001.4 | 1015.7 | 1030.4 | 1047.1
333.15 K, 15000 kPa | 1003.5 | 1017.7 | 1032.4 | 1049
333.15 K, 20000 kPa | 1005.5 | 1019.7 | 1034.3 | 1050.9
333.15 K, 30000 kPa | 1009.6 | 1023.6 | 1038.2 | 1054.7
333.15 K, 40000 kPa | 1013.6 | 1027.7 | 1042.1 | 1058.4
333.15 K, 50000 kPa | 1017.5 | 1031.4 | 1045.7 | 1062
333.15 K, 60000 kPa | 1021.3 | 1035 | 1049.4 | 1065.6
333.15 K, 70000 kPa | 1024.8 | 1038.6 | 1052.9 | 1069
333.15 K, 80000 kPa | 1028.6 | 1042.1 | 1056.3 | 1072.3
333.15 K, 90000 kPa | 1032 | 1045.6 | 1059.7 | 1075.5
333.15 K, 100000 kPa | 1035.6 | 1049.1 | 1063.2 | 1078.9
333.15 K, 110000 kPa | 1039 | 1052.3 | 1066.3 | 1082
333.15 K, 120000 kPa | 1042.5 | 1055.8 | 1069.8 | 1085.3
